Results: patent US4400384A, “5-o-Cyanobenzyl-4,5,6,7-tetrahydrothieno [3,2-c] pyridine methanesulfonate and other novel salts thereof” (Sanofi, S.A., priority 1980, dated 1983)
“Also recorded” adds a separate entry of the source.

What was measured:
central nervous system [1] = test: Central nervous system activity per se, rats; assay type: in vivo
red globules [2] = test: Anti-sludge activity in vivo in the rat
central nervous system [3] = test: Central nervous system activity per se, mice; assay type: in vivo
Acute toxicity in mice = details: mouse, in vivo
Description: (§1) The preferred methanesulfonate salt of the present invention was tested for acute and sub-acute toxicity and the results obtained on rats and mice by oral, intravenous and intraperitoneal administration are set forth in the tables below.

[4] = Anti-inflammatory activity; assay type: in vivo; details: result in words; listed as MS salt, methanesulfonate
rats = test: Sub-acute toxicity in rats, oral, 6 weeks; assay type: in vivo
Description: These tests were carried out on four groups of 30 rats, 15 males and 15 females in each group; the rats all being type SPF adults. Administration was by the oral route, carried out 5 days per week for a period of 6 consecutive weeks.

patients = test: Clinical study, second series: tolerance; assay type: in vivo, human; details: oral capsules, 700 mg per day, 7 days plus morning of 8th day, 11 patients
Description: (§2) In a second series of tests, the MS salt was again administered orally in the form of capsules containing 175 mg of the active salt. Eleven patients were treated, each patient receiving 4 capsules per day containing a total of 700 mg of MS salt divided in two portions of 350 mg morning and evening, after meals, for 7 days, and on the 8th day in the morning only. Therefore, the total amount of active ingredient (MS salt) was 5250 mg to each subject.

Acute toxicity in rats = details: rat, in vivo
Description: as §1

dogs [5] = test: Toxicity by oral administration in dogs; assay type: in vivo; details: 33 to 100 mg/Kg/day, 24 days
Description: Further toxicity investigations were carried out on the MS salt by oral administration in dogs. Two groups of 10 adult dogs were selected; one group being used as the control and the second group having the MS salt administered orally in increasing dosages as follows: […]

rabbit = test: Cardiovascular action in anesthetized rabbit; assay type: in vivo; details: perfusions at high dosages
[6] = Hypolipidic, hypocholesterol, hypoglycemic activity; details: in vivo
dogs [7] = test: Toxicity by intravenous administration in dogs; assay type: in vivo
Description: Further tests were conducted by intravenous administration of the MS salt to the dogs. In these tests 15 dogs were divided into three groups of 2 male and 3 female dogs each. One group was used as a control; only the 5 ml of […] aqueous saline vehicle being injected intravenously. The other two groups of dogs received intravenous injections of the MS salt in the same vehicle; one group a 2.5% solution of the MS salt at a dosage of 7.5 mg/Kg and the other group receiving the same solution at a dosage of 15 mg/Kg.

Vasodilator activity = assay type: in vivo; details: result in words
[8] = test system: blood-platelet aggregation (ADP); test: Inhibitor action on blood-platelet aggregation, ADP method (ex vivo after gastric tube dosing); assay type: in vivo, female rats of the Wistar type; details: 100 mg/Kg base equivalent at 48, 24 and 2 h before blood drawing
Description: The inhibitor action on blood-platelet aggregation of the salts of the present invention was determined by two different standard methods known to the art.
The first method, involving the use of ADP (adenosine diphosphate), is that of Ferrand J. C., Gaich C., Dumas, A.--EVALUATION DE L' EFFET ANTI-AGREGANT DE LA TICLOPIDINE PAR UNE TECHNIQUE SUR SANG TOTAL. COMM. SOCIETE DE BIOLOGIE DE TOULOUSE (TOULOUSE Feb. 9, 1978), RESUME IN: REV MED TOULOUSE, 1978, 14, (SUPPL. 5) 680, referred to hereinafter as the ADP method.
Groups of 10 female rats of the Wistar type were each dosed with one of the base or one of the salts of the invention and with the corresponding maleate salt of Amselem U.S. Pat. No. 4,097,482, at periods of 48 hours, 24 hours and 2 hours prior to drawing blood for testing by the ADP and collagen techniques referred to above. The active medicaments were administered by means of a gastric tube in the form of a 5% aqueous solution of gum arabic. A dosage level of 100 mg/Kg was used for the base, and for the salts an amount was used sufficient to provide the equivalent amount of the base portion of the salt.

Hemostasis activity = details: in vivo
[9] = test system: blood-platelet aggregation; test: Clinical study, second series: inhibition of blood-platelet aggregation; assay type: in vivo, human; details: oral capsules, 700 mg per day, 7 days plus morning of 8th day, 11 patients
Description: as §2

Diuretic activity = details: in vivo
human patients = test: Clinical study, first series: tolerance; assay type: in vivo; details: oral capsules, 350 to 1400 mg per day, 3 weeks, 12 patients
Description: The MS salt has been administered to human patients orally in the form of capsules each containing 175 mg of the active salt. Twelve patients were treated in four groups; one group receiving 2 capsules per day (350 mg); a second group receiving 4 capsules per day (700 mg); a third group receiving 6 capsules per day (1050 mg); and the fourth group receiving 8 capsules per day (1400 mg). This regimen was continued for 3 weeks.

red globules [10] = test: Anti-sludge activity in vitro on red globules; assay type: cell-based
[11] = test system: musculotropic isolated intestine; test: Anti-spasmodic activity on isolated intestine
[12] = test system: effects of oxotremorine or reserpine; test: Modification of the effects of oxotremorine or reserpine; assay type: in vivo; details: alone or together with ethyl alcohol
Analgesic activity = details: in vivo
[13] = oral, 50, 150, 300 mg/Kg, 5 days per week, 6 weeks

CS(=O)(=O)O.N#Cc1ccccc1CN1CCc2sccc2C1 [Methanesulfonate, 5-o-Cyanobenzyl-4,5,6,7-tetrahydrothieno [3,2-c] pyridine methanesulfonate]
influence on the central nervous system per se, rats (central nervous system [1]): no influence on the central nervous system
anti-sludge activity in vivo, intravenous (red globules [2]; administered intravenously): also in vivo when administered orally or intravenously in the rat
anti-sludge activity in vivo, oral (red globules [2]; administered orally): also in vivo when administered orally
influence on the central nervous system per se, mice (central nervous system [3]): no influence on the central nervous system
LD50 at 8 h (Acute toxicity in mice; intravenous, read-out: LD50, intravenous, mice): 134 mg/kg
LD50 at 8 h (Acute toxicity in mice; ip, intraperitoneal, read-out: LD50, intraperitoneal, mice): 898 mg/kg
LD50 at 8 h (Acute toxicity in mice; oral, read-out: LD50, oral, mice): 883 mg/kg
anti-inflammatory activity [4]: free of anti-inflammatory or vasodilator activity as is the MS salt; also recorded: without anti-inflammatory activity
toxicity and tolerance (overall) (rats; conclusion from acute and sub-acute tests): low toxicity and good tolerance
microscopic examination of principal organs (rats; end of test period or 15 days thereafter): normal in appearance with exception of some signs of gastric intolerance
histological examination of the organs (rats; oral, 6 weeks): good tolerance
behavior of the dosed animals (rats; [13]): No significant modification of the behavior
death attributable to administration (rats; [13]): nor was there any death attributable to the administration of the MS salt
clinical tolerance (patients): Clinical tolerance was excellent
LD50 at 8 h (Acute toxicity in rats; intravenous, read-out: LD50, intravenous, rats): 80.2 mg/kg
LD50 at 8 h (Acute toxicity in rats; ip, intraperitoneal, read-out: LD50, intraperitoneal, rats): 719 mg/kg
deaths attributable to the salt (dogs [5]): No deaths occurred which were attributable to the MS salt
hematological, blood biochemical or urinary functions (dogs [5]): No significant variations
vomiting (dogs [5]): some of the dogs experienced some vomiting
cardiovascular depressive action (rabbit): cardiovascular depressive action
hypocholesterol activity [6]: no hypolipidic, hypocholesterol
hypoglycemic activity [6]: no hypolipidic, hypocholesterol, or hypoglycemic activity
hypolipidic activity [6]: no hypolipidic
toxicity and tolerance in dogs (overall) (dogs [7]; conclusion from oral and intravenous tests): of low toxicity and well-tolerated by dogs
death (dogs [7]; intravenous, 7.5 and 15 mg/Kg, 2.5% solution in 9% aqueous saline, 23 consecutive days): without the death of any dog
peripheral and cerebral vasodilator activity (Vasodilator activity): lacks the peripheral and cerebral vasodilator activity
vasodilator action (Vasodilator activity; listed as MS salt, methanesulfonate): without causing vasodilator action; also recorded: free of anti-inflammatory or vasodilator activity as is the MS salt
BLOOD PLATELET AGGREGATION, ADP, 1 mn 30 s ([8]; 1 mn 30 s, controls 0.29): 0.73
BLOOD PLATELET AGGREGATION, ADP, 3 mn ([8]; 3 mn, controls 0.40): 0.88
hemostasis activity (Hemostasis activity): no hemostasis activity
inhibitory activity on blood-platelet aggregation in patients [9]: very effective inhibitory activity on blood-platelet aggregation
diuretic activity (Diuretic activity): free of diuretic activity
clinical tolerance (human patients): Clinical tolerance was excellent
side effects or incidents (human patients): no side effects or incidents being noted
anti-sludge activity in vitro (red globules [10]): anti-sludge activity in vitro on red globules
anti-spasmodic activity [11]: exhibit anti-spasmodic activity
modification of the effects of oxotremorine [12]: does not modify the effects of oxotremorine
modification of the effects of reserpine [12]: does not modify the effects of oxotremorine or reserpine
analgesic properties (Analgesic activity): free of analgesic properties
